Data taken from patent US7144862B2, “Orally administered peptides to ameliorate atherosclerosis” (The Regents of the University of California, priority 2000, dated 2006).
≈ marks a conversion by molar mass, not a printed value. Where “and” joins values, the source holds several entries; their conditions need not be identical. Equal entries are not always repeated. Entries after “also recorded” stand apart in the source; their conditions may differ. Where two headings read alike, the source gives them in different places. Non-standard residues stand in square brackets, D forms with d. Residues, ends and D or L forms follow the SMILES beside them.

Columns and labels:
Solubility in PBS = format: physicochemical
Description: The peptides were purified on a preparative Vydac C4 column by reversed-phase (RP)-HPLC using water (with 0.1% trifluoroacetic acid) and acetonitrile (0.1% trifluoroacetic acid). The purity and the retention times of the peptides were determined on an analytical Vydac C18 column using a gradient of 25%-58% acetonitrile in water containing 0.1% TFA. The purity of these peptides was also confirmed by mass spectrometry. The mass was in agreement with the calculated molecular weight. Although both the 3F peptides and 4F have additional Phe residues compared to 2F, the retention times of these peptides on the C18 column are not very different (˜22 min). A sudden increase in the retention time is apparent with 5F, 6F and 7F (˜26 min). With increasing number of Phe residues, the solubility of these peptides in PBS decreases.

[1] = Surface pressure measurements: monolayer exclusion pressure; format: physicochemical; settings: EPC monolayer; reproducibility ± 1 dyn/cm
Description: An insoluble monolayer of egg phosphatidylcholine (EPC) was spread at the air-water interface in a Teflon dish at room temperature to give an initial surface pressure (πi) in the range of 5–45 dyn/cm. A solution of peptides in PBS containing 1.5M Gdn. HCl was carefully injected in to the subphase to give a final concentration of 50 μg/dL. The Gdn. HCl was diluted in the subphase to a final concentration of ≦1 mM to allow the peptides to renature. The subphase was stirred continuously and the increase in EPC monolayer surface pressure (Δπ) was recorded until a steady state value was obtained. The value of the initial surface pressure (πi) at which the peptides no longer penetrate the EYPC monolayer i.e. the exclusion pressure (πe), was calculated by extrapolating the πi vs Δπ linear regression fit to Δπ=0 dyn/cm.

[2] = Circular dichroism, percent helicity; format: physicochemical; settings: for Percent Helicity PBS: 11 μM peptide in PBS; for Percent Helicity DMPC: 11 μM peptide, Peptide: DMPC 1:20 (mol/mol)
Description: Briefly, spectra were obtained using a cell with a 0.1 cm path length and measurements were taken every nm from 260 nm to 190 nm at 25° C. All the CD spectra were signal averaged by adding four scans, base line corrected and smoothed. Peptide solutions in PBS, pH 7.4, were used at a concentration of 11 μM. Peptide-DMPC complexes (1:20 mol:mol) were used to determine the effect of lipid binding on the helicity of these peptides. These complexes were prepared by adding the appropriate volume of peptide solution to DMPC multilamellar vesicles. DMPC multilamellar vesicles were prepared as follows: A known amount of lipid was dissolved in ethanol and the solvent was removed by evaporating slowly under a thin stream of nitrogen. Residual solvent was removed by storing the lipid film under vacuum overnight. An appropriate volume of PBS, pH 7.4 was added to the thin lipid film to give the required final concentration of DMPC.

[3] = DSC, chain melting transition of DMPC; format: physicochemical; settings: DMPC/peptide 100:1 (mol/mol); for TCM(° C.): 1.5 mM DMPC, chain melting transition temperature; for ΔHCM (kcals/mol): enthalpy of the transition; for ΔT1/2 (° C.): width at half maximum of the transition
Description: (§1) A known amount of phospholipid was dissolved in chloroform. For one set of samples, peptide was dissolved in methanol and added to a solution of DiPoPE in chloroforn/methanol (2:1, v:v). For both, pure lipid samples and the organic solutions of lipid and peptide, solvent was removed under a slow stream of nitrogen. Residual solvent was removed under vacuum. […] For DMPC, four consecutive scans with a 60 minute equilibration time between scans were taken. DSC thermograms were analyzed using the software provided by MicroCal Inc., Amherst, Mass., and Origin, version 5.0.
The effect of these 18A analogues on the chain melting transition of multilamellar vesicles of DMPC was studied by DSC using peptide-lipid mixtures at 100:1 lipid/peptide molar ratio.

[4] = DSC, bilayer to hexagonal phase transition of DiPoPE; format: physicochemical; settings: heating scan rate 37°/h
Description: as §1
In the current study we prepared the peptide-lipid mixtures in two ways. One was by adding the peptide in organic solvent to the lipid in organic solvent followed by depositing the material as a film and subsequently hydrating with buffer. In the other method, the peptide and lipid were mixed after each was hydrated separately. If the mixture comes to equilibrium prior to the DSC analysis, it should not matter how the peptide and lipid are originally mixed. However, membrane systems can equilibrate slowly, in which case there may be more peptide in the lipid when it was incorporated at high concentrations into the lipid film.

[5] = Right angle light scattering, dissolution of EPC MLVs; format: physicochemical; settings: 105 μM EPC, equimolar peptide; for clarification of EPC MLVs: 25° C., 30 min
Description: EPC MLVs were prepared by evaporating a solution of EPC (Avanti Polar, AL) under nitrogen and hydrating the lipid film with phosphate-buffered saline (pH 7.4). […] Turbidity clarification was monitored for 30 min.

[6] = test system: human artery wall cell cocultures; experiment: LDL-induced monocyte chemotactic activity with the homologous series of peptides (Example 3); format: cell-based; settings: peptide at 100 μg/ml, LDL 250 μg protein/ml, 8 h
Description: Microtitre plates were treated with 0.1% gelatin at 37° C. overnight. HASMC were added at a confluent density of 1×10^5 cells/cm^2. […] HAEC were subsequently added at 2×10^5 cells/cm^2 and were allowed to grow, forming a complete monolayer of confluent HAEC in two days. In all experiments, HAEC and autologous HASMC (from the same donor) were used at passage levels of four to six. […] The cocultures were treated with native LDL(250 μg protein/ml) or presence of HDL (350 μg protein/ml) or peptides for 8 h.

[7] = test system: human artery wall cell cocultures; experiment: Lipoproteins from mice given peptide by gavage tested in human artery wall cell cocultures (monocyte chemotactic activity)
Description: Groups of LDL receptor-deficient mice (n=3) were administered the D-peptides or the saline vehicle by gavage. […] Blood was collected from retroorbital sinus under mild anesthesia 17 hrs later. LDL was isolated from plasma by FPLC. Cocultures of artery wall cells were incubated with medium alone (NO ADDITION), control LDL from normal subjects (LDL), LDL plus control HDL from normal subjects (+HDL). […] The cocultures were incubated for 4 hrs at 37° C. in the presence of 10% LPDS. The supernatants were then discarded, the cocultures were washed and incubated with culture medium without serum or LPDS for an additional 4 hrs. This conditioned medium was collected and analyzed for monocyte chemotactic activity. The values are mean±SD of quadruplicate cocultures.
Blood was collect after 6 hrs, plasma HDL and LDL were isolated by gel filtration (FPLC) and examined in the cocultures. […] Human LDL at 200 μg protein/ml was added to human artery wall cell cocultures together with human HDL (hHDL) at 350 μg protein/ml or mouse HDL (mHDL) at 100 μg cholesterol/ml taken from mice that received saline (Saline Rx) or L-4F (L-4F Rx) or D-4F (D-4F Rx) and monocyte chemotactic activity was determined as described herein. […] On the right, mouse LDL (mLDL) was isolated from mice receiving saline (Saline Rx) or L-4F (L4F Rx) or D-4F (D-4F Rx) and was added at 100 μg cholesterol/ml to the artery wall cell cocultures without HDL and monocyte chemotactic activity determined. Values are mean±SD) for four wells in two independent experiments.
Either saline or 2F synthesized from D amino acids or from L amino acids was instilled in the stomachs of mice by gavage (instillation in the stomach by tube). After gavage the mice were bled and their LDL isolated and added to the human artery wall cell cocultures.
The animals were bled 1.5, 3 or 6 hours later and their HDL, LDL, and VLDL/IDL isolated.
Human aortic endothelial and smooth muscle cells were isolated and cultured as previously described (Id.). Cellular oxidation of LDL in the presence and absence of HDL was determined as described (Id.). Human blood monocytes were isolated after obtaining informed consent and monocyte chemotaxis was determined as described previously^5.

[8] = test system: Human aortic wall cocultures; experiment: LDL plus peptide in vitro in human aortic wall cocultures, monocyte chemotactic activity (Example 2); format: cell-based; settings: control LDL 250 μg/ml plus varying amounts of peptide
Description: Human aortic wall cocultures were incubated with medium alone (LDL, NO CELLS or CELLS, NO LDL, see FIG. 9), control LDL from normal subjects at 250 μg/ml (LDL) and LDL plus control HDL from normal subjects at 350 μg/ml (+HDL). Other cocultures were incubated With the control LDL together with varying amounts (micrograms shown on the abscissa) of either D-2F, or L-2F (third panel from the left, 2F) or D-37-pA or L-37pA (last panel on the right, 37pA). The data represent mean±SD of values obtained from quadruplicate cocultures.

[9] = mouse, in vivo
Description: The 5F peptide, MoAI, and human apo A-I were labeled with ^125I by the method of Bilheimer et al. (1972) Biochim. Biophys. Acta 260: 212–221. Mice were placed on a modified Thomas-Hartroft atherogenic diet (#TD88051; Teklad, Madison, Wis.) for four weeks at which time daily intraperitoneal injections of peptide or protein dissolved in 200 μl phosphate-buffered saline (PBS) were begun. Animals injected with MoAI or human apo A-I received 50 μg per animal; those injected with 5F received 20 μg. Animals were not fasted for the kinetic studies and blood samples were taken under xylazine:ketamine anesthesia from the retro-orbital sinus at 15, 30, and 45 minutes, and 1, 1.5, 2, 3, 4, 6, 8, 12, and 24 hours following injection. Each animal provided three blood samples at different time points (all retro-orbital and alternating eyes), and at least three samples were collected (from different animals) at each time point. Samples were collected into heparinized capillary tubes, then placed in microcentrifuge tubes; the plasma was separated by centrifugation. Duplicate 10 μl aliquots of each sample were taken for radioactivity determination, using gamma counting (Cobra; Packard Instruments, Downers Grove, Ill.) for 10 minutes per sample. Total plasma volume was calculated as 4.2% body weight. Each sample was expressed as percent of injected CPM in total plasma. Free ^125I was determined by trichloroacetic acid (TCA) precipitation (1 ml of 10% TCA per 10 μl plasma sample). Fitting to the kinetic model was done using all data points, rather than averages at each time point (PKAnalyst, MicroMath Scientific Software, Salt Lake City, Utah).
Treatment groups were compared by two-tailed t-tests or one way analysis of variance (where the data were normally distributed), or by one way analysis of variance on ranks (SigmaStat; SPSS Science, Chicago, Ill.). Kinetics of peptide or protein turnover were analyzed by fitting to a first order one-compartment kinetic model assuming non-equal input and output rates (PKAnalyst; MicroMath Scientific Software, Salt Lake City, Utah).

[10] = 5F, 100 μg per animal by oral gavage, LDL receptor null mice, blood after 6 hrs

## CC(=O)N[C@@H](CC(=O)O)C(=O)N[C@@H](Cc1c[nH]c2ccccc12)C(=O)N[C@@H](Cc1ccccc1)C(=O)N[C@@H](CCCCN)C(=O)N[C@@H](C)C(=O)N[C@@H](Cc1ccccc1)C(=O)N[C@@H](Cc1ccc(O)cc1)C(=O)N[C@@H](CC(=O)O)C(=O)N[C@@H](CCCCN)C(=O)N[C@H](C(=O)N[C@@H](C)C(=O)N[C@@H](CCC(=O)O)C(=O)N[C@@H](CCCCN)C(=O)N[C@@H](Cc1ccccc1)C(=O)N[C@@H](CCCCN)C(=O)N[C@@H](CCC(=O)O)C(=O)N[C@@H](C)C(=O)N[C@@H](Cc1ccccc1)C(N)=O)C(C)C [Peptide 4F, Ac-D-W-F-K-A-F-Y-D-K-V-A-E-K-F-K-E-A-F-NH2]
Solubility in PBS
  Solubility: 1.30 mg/mL (≈ 563 µM)
Solubility in PBS; Solubility (mg/ml)
  solubility: 1.25 to 1.4 mg/mL (≈ 541 to 606 µM)
[1]
  Monolayer Exclusion Pressure(πc): 40 dyn/cm
[2]
  Percent Helicity PBS: 45%
  Percent Helicity DMPC: 44%
[3]
  TCM(° C.): 23.2 °C
  ΔHCM (kcals/mol): 5.3 kcals/mol
  ΔT1/2 (° C.): 0.4 °C
[4]
  shift in TH of DiPoPE with mol fraction of peptide: more rapid increase is observed at lower peptide concentrations
[5]
  time for 50% clearance of the turbidity of EPC MLVs: shortest
  clarification of EPC MLVs: most effective in clarifying EPC MLVs with activity similar to that of Triton X-100
[6]
  inhibition of LDL-induced monocyte chemotaxis: significant and similar inhibition

## CC(=O)N[C@H](CC(=O)O)C(=O)N[C@H](Cc1c[nH]c2ccccc12)C(=O)N[C@H](CC(C)C)C(=O)N[C@H](CCCCN)C(=O)N[C@H](C)C(=O)N[C@H](Cc1ccccc1)C(=O)N[C@H](Cc1ccc(O)cc1)C(=O)N[C@H](CC(=O)O)C(=O)N[C@H](CCCCN)C(=O)N[C@@H](C(=O)N[C@H](Cc1ccccc1)C(=O)N[C@H](CCC(=O)O)C(=O)N[C@H](CCCCN)C(=O)N[C@H](Cc1ccccc1)C(=O)N[C@H](CCCCN)C(=O)N[C@H](CCC(=O)O)C(=O)N[C@H](Cc1ccccc1)C(=O)N[C@H](Cc1ccccc1)C(N)=O)C(C)C [Peptide D-5F, Ac-D-W-L-K-A-F-Y-D-K-V-F-E-K-F-K-E-F-F-NH2] (Ac-[dD][dW][dL][dK][dA][dF][dY][dD][dK][dV][dF][dE][dK][dF][dK][dE][dF][dF]-NH2)
[7]; [10]
  HDL protective capacity: markedly more protective
  LDL resistance to oxidation: highly resistant to oxidation
[7]; 50 micrograms by gavage, 3 hour time point
  monocyte chemotactic activity induced by mouse VLDL/IDL fraction: significantly less monocyte chemotactic activity
[7]; 50 micrograms by gavage, HDL taken after 6 hours
  protection of control LDL by mouse HDL: slightly less
[7]; 50 micrograms by gavage, after 3 h and 6 h
  monocyte chemotactic activity induced by mouse LDL: significantly less monocyte chemotactic activity

## Ac-DWFKAFYDKFFEKFKEFF-NH2 [Peptide 7F, Ac-D-W-F-K-A-F-Y-D-K-F-F-E-K-F-K-E-F-F-NH2]
[1]
  Monolayer Exclusion Pressure(πc): 45 dyn/cm
[2]
  Percent Helicity PBS: 58%
  Percent Helicity DMPC: 68%
[3]
  TCM(° C.): 23.2 °C
  ΔHCM (kcals/mol): 4.5 kcals/mol
  ΔT1/2 (° C.): 0.5 °C
[4]
  shift in TH of DiPoPE with mol fraction of peptide: do not significantly affect TH
[5]
  initial lag period in EPC MLV clearance: ~300 s
  time for 50% clearance of the turbidity of EPC MLVs: longest time
  clarification of EPC MLVs: clarified the EPC MLVs to a similar extents
[6]
  inhibition of LDL-induced monocyte chemotaxis: significantly less effective than peptides 4F, 5F and 6F

## Ac-DWFKAFYDKVAEKLKEAF-NH2 [3F^3]
Solubility in PBS; in PBS, read-out: Solubility
  solubility: 1.25 to 1.4 mg/mL

## Ac-DWLKAFYDKFFEKFKEFF-NH2 [Peptide 6F, Ac-D-W-L-K-A-F-Y-D-K-F-F-E-K-F-K-E-F-F-NH2]
Solubility in PBS
  Solubility: 0.03 mg/mL
Solubility in PBS; Solubility (mg/ml)
  solubility: 0.03 to 0.1 mg/mL
[1]
  Monolayer Exclusion Pressure(πc): 45 dyn/cm and 46 dyn/cm
[2]
  Percent Helicity PBS: 67%
  Percent Helicity DMPC: 50%
[3]
  TCM(° C.): 23.1 °C
  ΔHCM (kcals/mol): 4.0 kcals/mol
  ΔT1/2 (° C.): 0.5 °C
[4]
  shift in TH of DiPoPE with mol fraction of peptide: do not significantly affect TH
[5]
  clarification of EPC MLVs: clarified the EPC MLVs to a similar extents
[6]
  inhibition of LDL-induced monocyte chemotaxis: significant and similar inhibition

## Ac-DWLKAFYDKVAEKLKEAF-NH2 [Peptide L-2F, Ac-D-W-L-K-A-F-Y-D-K-V-A-E-K-L-K-E-A-F-NH2]
[8]
  monocyte chemotactic activity induced by LDL treated with peptide in vitro: significantly different from LDL; also recorded: equally able to block LDL oxidation and LDL-induced monocyte chemotactic activity
[7]; D versus L form by gavage
  monocyte chemotaxis induced by LDL from mice given 2F by gavage: readily induced monocyte chemotaxis

## Ac-DWLKAFYDKVFEKFKEFF-NH2 [Peptide L-5F, Ac-D-W-L-K-A-F-Y-D-K-V-F-E-K-F-K-E-F-F-NH2]
[7]; [10]
  HDL protective capacity: but not L-5F rendered the HDL markedly more protective

## H-DWLKAFYDKVAEKLKEAF-OH [Peptide 18A, D-W-L-K-A-F-Y-D-K-V-A-E-K-L-K-E-A-F, reference compound]
Solubility in PBS; in PBS, read-out: Solubility
  solubility: > 2 mg/mL
[1]
  Monolayer Exclusion Pressure(πc): 30 dyn/cm

## H-DWLKAFYDKVAEKLKEAFPDWLKAFYDKVAEKLKEAF-OH [Peptide 37pA, DWLKAFYDKVAEKLKEAFPDWLKAFYDKVAEKLKEAF, reference compound]
Solubility in PBS; in PBS, read-out: Solubility
  solubility: > 2 mg/mL
[1]
  Monolayer Exclusion Pressure(πc): 40 dyn/cm and 41 dyn/cm

## H-DWLKAFYDKVAEKLKEAFPDWLKAFYDKVAEKLKEAF-OH [Peptide L-37pA, reference compound]
[8]
  monocyte chemotactic activity induced by LDL treated with peptide in vitro: significantly different from LDL

## Human apo A-I: Human apo A-I is a 243 residue protein, major protein constituent of HDL
Solubility in PBS
  Solubility: >2.0 mg/mL
[1]
  Monolayer Exclusion Pressure(πc): 34 dyn/cm
[5]
  clarification of EPC MLVs: does not clarify EPC MLVs
[9]
  Max. % in plasma: 23.7%
[9]; ip
  Time (h) to max. CPM: 3.61 h
  T½: 15.6 h
